Data published in PMC8712301, “Novel CYP11B-ligand [^123/131I]IMAZA as promising theranostic tool for adrenocortical tumors: comprehensive preclinical characterization and first clinical experience” (European Journal of Nuclear Medicine and Molecular Imaging, 2021).
Each block holds one molecule with its values, some of them ahead of it.

Key:
advanced ACC = assay: Diagnostic imaging and biokinetics with [123I]IMTO and [123I]IMAZA in patients with advanced ACC; assay type: in vivo, human; parameters: AUC (time integral of the uptake function): concentration or dose not given beside the values
Experimental: Three patients (#1, #2, and #3) were investigated by [^123I]IMAZA (administered doses, 117, 163, and 182 MBq, respectively) and subsequently by [^123I]IMTO (176, 169, and 146 MBq, respectively). The time interval between the imaging studies was at least 5 days. Scintigraphic imaging was performed using a Siemens Symbia dual-head gamma camera equipped with medium-energy parallel-hole collimators. Activity concentration was measured in whole blood samples drawn at 2 min, 5 min, 15 min, 1 h, 2.5 h, 5 h, and 23 h after the administration. Plasma activity was analyzed in patient #1.

NCI-H295 cells [1] = assay: Cell uptake of 125I-labeled tracers in NCI-H295 cells, with and without etomidate; assay type: cell-based, human; parameters: Intracellular uptake with co-incubation of etomidate: dose or concentration left out as unconfirmed
Experimental: (§1) NCI-H295 cells (n = 250,000 per vial) were incubated with 0.1 MBq of the respective ^125I-labeled tracer at 37 °C, 5% CO2. For the blocking experiment, the cells were co-incubated with etomidate. Aliquots were taken and immediately placed into a 4 °C ice bath. After 5 min, the solution was centrifuged and rinsed twice with PBS/0.5% Tween 80, and the collected rinse solution was measured in a gamma counter. Assays were performed in triplicates. The intracellular distribution of the respective ^125I-labeled inhibitors and the specific binding to mitochondrial membranes were verified using a commercially available kit (Qiagen Qproteome Mitochondria isolation).
Fig. 3 a In vitro uptake kinetics of [^125I]IMTO, [^125I]IMAZA, [^125I]3, and [^125I]4 in NCI-H295 cells. b Cellular uptake of [^125I]IMTO, [^125I]IMAZA, [^125I]3, and [^125I]4 in NCI-H295 cells with and without co-incubation with etomidate. Cells […] (n = 3). c Cellular subfractionation of NCIH295 cells exposed to 0.1 MBq [^125I]IMTO, [^125I]IMAZA, [^125I]3, and [^125I]4 for 30 min at 37 °C. Distribution of the tracer compounds among the respective cellular subfractions

NCI-H295 cells [2] = assay: Cellular subfractionation of NCI-H295 cells exposed to 125I-labeled tracers; assay type: cell-based, human
Experimental: as §1
Fig. 3 a In vitro uptake kinetics of [^125I]IMTO, [^125I]IMAZA, [^125I]3, and [^125I]4 in NCI-H295 cells. b Cellular uptake of [^125I]IMTO, [^125I]IMAZA, [^125I]3, and [^125I]4 in NCI-H295 cells with and without co-incubation with etomidate. Cells were incubated with 0.1 MBq of the respective compounds and co-incubated with (0.1 µM, 10 µM, 100 µM) etomidate to monitor the specific uptake (n = 3). c Cellular subfractionation of NCIH295 cells exposed to 0.1 MBq [^125I]IMTO, [^125I]IMAZA, [^125I]3, and [^125I]4 for 30 min at 37 °C. Distribution of the tracer compounds among the respective cellular subfractions

adrenal gland = assay: Biodistribution in male CD-1 mice; assay type: in vivo; conditions: for Uptake in the adrenals: i.v. 0.1 MBq
Experimental: Six- to 8-week old male CD-1 mice received 0.1 MBq [^125I]IMTO [17] or the ^125I-labeled IMTO-analogues as intravenous injection in the tail vein. At predefined time points, mice were sacrificed (min. n = 5 per time point). Blood and urine were collected, and several organs were excised and weighed, and tracer uptake was determined by measurement in a γ-counter.
Fig. 4 Biodistribution of [^125I]IMTO and the new compounds [^125I]IMAZA, [^125I]3, and [^125I]4 in male CD-1 mice. Mice were injected i.v. with 0.1 MBq of respective compounds. Ex vivo organ dosimetry was performed at predefined time points 15 min, 30 min, 120 min, and 240 min after tracer injection. Results are expressed as percentage of injected dose per gram organ (%ID/g). Exact numbers on uptake in the adrenal as %ID/g for the compounds are given in the supplemental data

[3] = Metabolic inactivation by human liver microsomes in vitro (radio-HPLC); assay type: in vitro ADME; conditions: human liver microsomes, radio-HPLC
Experimental: Metabolic degradation was determined by co-incubation of the tracers with human liver microsomes (Sigma, M0317). Experiments were conducted in triplicates. Incubation mixtures consisted of liver microsomes (0.2 mg/ml), the respective ^125I-labeled compound (0.1 MBq), MgCl2 (3.3 mM), and NADPH (1.3 mM) in a total volume of 0.6 ml K3PO4 puffer (25 mM, pH 7.2). The reaction was started with the addition of NADPH and incubated at 37 °C. At predefined time points, aliquots were removed, and the reaction was terminated by adding 160 µL ice-cold methanol. After centrifugation (5000 × g, 4 °C for 4 min), the supernatant was analyzed by radio-HPLC (see experimental details and Supplementary Fig. 1 in Supplement).

[4] = tested on: human adrenocortical and non-adrenocortical tissue cryosections; assay: Autoradiographic binding to human tissue cryosections
Experimental: Human tissues were quick frozen in liquid nitrogen to block further biological processes including protein degradation and stored at –80 °C. Frozen samples from adrenocortical carcinoma (ACC; n = 3), aldosterone-producing adenoma (APA; n = 2), and cortisol-producing adenoma (CPA; n = 2), normal adrenal, kidney, and liver were sectioned into 20-µm-thick tissue slices, thaw-mounted onto Superfrost slides (PAP PEN, Zymed® Laboratories) and stored at –80 °C until processing. For the experimental set up, the tissue slices were pre-incubated for 5 min at room temperature with buffer solution (pH 7.4, 50 mM Tris). Afterwards, the slices were directly incubated with TRIS HCl buffer solution containing 2% BSA. After 1-h blocking, slides were treated with 0.1 MBq of the different compounds. As controls, slides were incubated with 0.1 MBq of the compounds in 10 µM of the non-radioactive compound to assess binding specificity. In the following, slides were washed twice with 50 mM Tris HCl buffer solution (pH 7.4). For exposure, samples were placed on Phosphor Imager plates for 30 min in dedicated lead-shielded cassettes. Autoradiographic images were analyzed with a CR35BIO Image plate scanner, and data analysis was performed with Amide software version 0.9.0.
Fig. 5 Ex vivo imaging of normal adrenal gland, adrenocortical tumors, and control tissue (kidney, liver). Autoradiographic visualization of [^125I]IMTO and [^125I]IMAZA accumulation in the normal adrenal gland, in adrenocortical tumors (ACC, APA, CPA), kidney, and liver as control tissue (sections with 20 µm slice thickness) (representative example). […] The red circles show the position of the organs that are not shown in the imaging. A = 0.1 MBq tracer, B = 0.1 MBq tracer plus non-radioactive 10 µM inhibitor

metastatic ACC = assay: Dosimetry and endoradiotherapy with [131I]IMAZA in a patient with metastatic ACC; assay type: in vivo, human
Source text: Patient #1 had experienced disease progression with a more than fourfold increase in their dominant lesions within only 4 months after a phase of disease stabilization after standard treatment with mitotane and eight courses of combination chemotherapy with etoposide, doxorubicin, and cisplatin. They received therapeutic doses with 28.2 GBq [^131I]IMAZA 1 month and with 30.5 GBq [^131I]IMAZA 7 months after the evaluation with [^123I]IMAZA. Prior to the first treatment, the absorbed dose to the blood was measured with a tracer activity of 72 MBq [^131I]IMAZA as a surrogate for the exposure of the dose-limiting organ, the red bone marrow. The absorbed dose to the blood was estimated from assessments of the activity kinetics in total body and blood up to 48 h when the mean activity concentrations had dropped to 5% of the values at 5 min after the administration in the total body and to 1% in the blood. During therapy, the total body activity retention was measured with a survey meter in the ceiling over the patient’s bed. Gamma camera whole body scans accompanied by blood sampling were acquired starting 4 days post-administration after the first and 2 days after the second therapy until dismissal. SPECT/CT imaging was performed after 4 and 5 days, respectively.
Tumor evaluation was performed by [^18F]FDG PET/CT at baseline and 2, 5, 8, 11, 14, and 21 months after administration of the first treatment dose. Subsequently, the patient declined further follow-up imaging or additional therapeutic interventions.

[5] = three patients with advanced ACC
[6] = tumor lesion: patient #1, lesion #1
[7] = tumor lesion: patient #1, lesion #2
[8] = tumor lesion: patient #2, lesion #1
[9] = tumor lesion: patient #3, lesion #1
[10] = tumor lesion: patient #3, lesion #2
[11] = patient #1, pre-therapeutic kinetics assessment with [131I]IMAZA

AUC (time integral of the uptake function) (advanced ACC; median of five tumor lesions): 0.0024 h/g
effective half-live (advanced ACC; median of five tumor lesions): 11.0 h
uptake (advanced ACC; median of five tumor lesions): 0.011 %/g
Activity concentration in plasma, times higher than in whole blood (advanced ACC; patient #1, hematocrit 35%): 1.16 times
Residence time per liter of whole blood, times higher than for [123I]IMAZA (advanced ACC; [5]): 3.6 ± 1.5 times
Total body residence time, times higher than for [123I]IMAZA (advanced ACC; [5]): 2.2 ± 0.2 times
AUC (time integral of the uptake function) (advanced ACC; [6]): 0.0031 h/g
effective half-live (advanced ACC; [6]): 11.2 h
uptake (advanced ACC; tumor lesion: patient #1, lesion #1, SPECT/CT, normalised to administered activity): 0.015 %/g
AUC (time integral of the uptake function) (advanced ACC; [7]): 0.0024 h/g
effective half-live (advanced ACC; [7]): 11.0 h
uptake (advanced ACC; tumor lesion: patient #1, lesion #2, SPECT/CT): 0.011 %/g
AUC (time integral of the uptake function) (advanced ACC; [8]): 0.0016 h/g
effective half-live (advanced ACC; [8]): 12.4 h
uptake (advanced ACC; tumor lesion: patient #2, lesion #1, SPECT/CT): 0.006 %/g
AUC (time integral of the uptake function) (advanced ACC; [9]): 0.0017 h/g
effective half-live (advanced ACC; [9]): 8.0 h
uptake (advanced ACC; tumor lesion: patient #3, lesion #1, SPECT/CT): 0.010 %/g
AUC (time integral of the uptake function) (advanced ACC; [10]): 0.0056 h/g
effective half-live (advanced ACC; [10]): 10.1 h
uptake (advanced ACC; tumor lesion: patient #3, lesion #2, SPECT/CT): 0.027 %/g
SMILES: COC(=O)c1cncn1[C@H](C)c1ccc([123I])cc1 [[^123I]IMTO, [^123I]iodometomidate]

SMILES: C[C@H](c1ccc([125I])cc1)n1cncc1C(=O)N1CCC1 [[^125I]IMAZA]
Intracellular uptake with co-incubation of etomidate (NCI-H295 cells [1]; NCI-H295 cells): 8.6%
Uptake with co-incubation of etomidate (NCI-H295 cells [1]; NCI-H295 cells, highest concentration 100 µM etomidate): almost completely blocked
Intracellular uptake in NCI-H295 cells compared with [125I]IMTO (NCI-H295 cells [1]; at 30 min): highest uptake
Subcellular distribution compared with [125I]IMTO (NCI-H295 cells [2]; 30 min): similar
Uptake in the non-target organs (adrenal gland; male CD-1 mice): extremely low uptake values
Uptake in the adrenals (adrenal gland; male CD-1 mice, 15 min): 710.9 ± 210.5 %ID/g
Uptake in the adrenals (adrenal gland; male CD-1 mice, 30 min): 720.4 ± 169.7 %ID/g
Uptake in the adrenals (adrenal gland; male CD-1 mice, 120 min): 395.7 ± 92.7 %ID/g
Uptake in the adrenals (adrenal gland; male CD-1 mice, 240 min): 275.4 ± 124.1 %ID/g
Uptake at the latest time point, times higher compared to [125I]IMTO (adrenal gland; mice): 10 times
Tracer uptake and target to background ratios compared with [125I]IMTO (adrenal gland; mice biodistribution): higher tracer uptake with better target to background ratios
Metabolic stability compared with [125I]IMTO [3]: more than threefold longer half-life
Autoradiographic signal compared with [125I]IMTO ([4]; human adrenocortical tissue): distinctively stronger
Binding to control tissue (liver, kidney) ([4]; human liver n = 2, kidney n = 1): no binding was detected
Binding to ACC, APA, and CPA tissue ([4]; human tissue sections 20 µm, 0.1 MBq tracer, ± 10 µM non-radioactive compound): very strong and specific binding

SMILES: COC(=O)c1cncn1C(C)c1ccc([125I])cc1 (stereo not drawn) [[^125I]IMTO, reference compound]
Intracellular uptake with co-incubation of etomidate (NCI-H295 cells [1]; NCI-H295 cells): 28.2%
Intracellular uptake in NCI-H295 cells (NCI-H295 cells [1]; after 30 min, 0.1 MBq tracer, 37 °C): 36.4%
Accumulation in the cytosolic fraction (NCI-H295 cells [2]; 0.1 MBq, 30 min at 37 °C): 7%
Accumulation in the mitochondrial subfraction (NCI-H295 cells [2]; 0.1 MBq, 30 min at 37 °C): 59.4%
Accumulation in the nuclei, cell debris subfraction (NCI-H295 cells [2]; 0.1 MBq, 30 min at 37 °C): 33.6%
Uptake in the adrenals (adrenal gland; male CD-1 mice, 15 min): 491.2 ± 170.3 %ID/g
Uptake in the adrenals (adrenal gland; male CD-1 mice, 30 min): 321.3 ± 170.6 %ID/g
Uptake in the adrenals (adrenal gland; male CD-1 mice, 120 min): 80.5 ± 43.7 %ID/g
Uptake in the adrenals (adrenal gland; male CD-1 mice, 240 min): 27.4 ± 25.9 %ID/g

SMILES: C[C@H](c1ccc([131I])cc1)n1cncc1C(=O)N1CCC1 [[^131I]IMAZA]
Long-term disease stabilization (progression-free survival) (metastatic ACC; patient #1, after first treatment): 21 months
Survival (overall survival) (metastatic ACC; patient #1, after initial endoradiotherapy): 30 months
Absorbed dose for both the liver and the kidney (metastatic ACC; patient #1, estimated): below 0.2 Gy/GBq
Absorbed dose to the blood (metastatic ACC; patient #1, first therapy with 28.2 GBq): 1.1 Gy
Activity giving an absorbed dose to the blood of 2 Gy (metastatic ACC; patient #1, pre-therapeutic kinetics assessment): 63 GBq
Absorbed dose to the blood (metastatic ACC; [11]): 0.032 Gy/GBq
Residence time in the whole blood (metastatic ACC; [11]): 0.17 h per liter of whole blood
Residence time in the total body (metastatic ACC; patient #1, pre-therapeutic kinetics assessment with tracer activity): 10.9 h
Mean blood absorbed dose (advanced ACC; kinetics recalculated for 131I from 123I diagnostics in patients): 0.03 Gy/GBq
